In ChEMBL document CHEMBL5620368, “Molecular-level strategic goals and repressors in Leishmaniasis - Integrated data to accelerate target-based heterocyclic scaffolds” (Eur J Med Chem, 2023):
≈ marks a conversion by molar mass, not a printed value.

Legend:
[1] = system: Leishmania mexicana; assay: Antileishmanial activity against Leishmania mexicana promastigotes MHOM/B2/62/BEL21 assessed as reduction in parasite growth by tryphan blue staining based analysis; format: functional, organism-based
[2] = Inhibition of Leishmania infantum Trypanothione reductase expressed in Escherichia coli BL21 (DE3) using trypanothione as substrate preincubated for 3 mins followed NADPH addition by Dixon plot analysis
[3] = target: T1, Arginase (Leishmania amazonensis, UniProt O96394); assay: Inhibition of Leishmania amazonensis Arginase
[4] = target: T1, Arginase; assay: Inhibition of Leishmania amazonensis Arginase assessed as inhibition constant
[5] = system: Leishmania infantum; assay: Antileishmanial activity against GFP-expressing Leishmania infantum intracellular amastigotes infected in human THP-1 derived macrophage cells assessed as reduction in parasite viability measured for 72 hrs by resazurin/alamar blue fluorometric assay; format: functional, organism-based; conditions: THP-1, 72 h
[6] = system: Leishmania infantum; assay: Inhibition of Leishmania infantum Arginase expressed in Escherichia coli BL21 (DE3) at 100 uM by enzymatic assay relative to control
[7] = system: Leishmania infantum; assay: Inhibition of Leishmania infantum promastigotes Arginase expressed in Escherichia coli BL21 (DE3) at 100 uM by enzymatic assay relative to control
[8] = system: Leishmania donovani; assay: Antileishmanial activity against Leishmania donovani MHOM/IN/1983/AG83 promastigote assessed as reduction in parasite growth incubated for 12 hrs by MTT assay; format: functional, organism-based; conditions: MHOM/IN/1983/AG83, 12 h
[9] = system: Leishmania donovani; assay: Antileishmanial activity against Leishmania donovani promastigotes infected in hamster assessed as reduction in parasite load in spleen; format: functional, organism-based
[10] = system: Leishmania amazonensis; assay: Antileishmanial activity against Leishmania amazonensis axenic amastigote assessed as inhibition of parasite growth incubated for 72 hrs by MTT colorimetric assay; format: functional, organism-based
[11] = system: Leishmania amazonensis; assay: Antileishmanial activity against Leishmania amazonensis axenic promastigotes assessed as inhibition of parasite growth incubated for 72 hrs by MTT colorimetric assay; format: functional, organism-based
[12] = Inhibition of recombinant rat liver arginase
[13] = system: Leishmania amazonensis; assay: Antiprotozoal activity against Leishmania amazonensis axenic amastigotes assessed as growth inhibition measured after 5 days by MTT assay; format: functional, organism-based; conditions: 120 h
[14] = target: T2, DNA topoisomerase I (Leishmania donovani (strain BPK282A1), UniProt E9BRC0); assay: Inhibition of Leishmania donovani DNA topoisomerase I
T2 sequence (E9BRC0 whole entry): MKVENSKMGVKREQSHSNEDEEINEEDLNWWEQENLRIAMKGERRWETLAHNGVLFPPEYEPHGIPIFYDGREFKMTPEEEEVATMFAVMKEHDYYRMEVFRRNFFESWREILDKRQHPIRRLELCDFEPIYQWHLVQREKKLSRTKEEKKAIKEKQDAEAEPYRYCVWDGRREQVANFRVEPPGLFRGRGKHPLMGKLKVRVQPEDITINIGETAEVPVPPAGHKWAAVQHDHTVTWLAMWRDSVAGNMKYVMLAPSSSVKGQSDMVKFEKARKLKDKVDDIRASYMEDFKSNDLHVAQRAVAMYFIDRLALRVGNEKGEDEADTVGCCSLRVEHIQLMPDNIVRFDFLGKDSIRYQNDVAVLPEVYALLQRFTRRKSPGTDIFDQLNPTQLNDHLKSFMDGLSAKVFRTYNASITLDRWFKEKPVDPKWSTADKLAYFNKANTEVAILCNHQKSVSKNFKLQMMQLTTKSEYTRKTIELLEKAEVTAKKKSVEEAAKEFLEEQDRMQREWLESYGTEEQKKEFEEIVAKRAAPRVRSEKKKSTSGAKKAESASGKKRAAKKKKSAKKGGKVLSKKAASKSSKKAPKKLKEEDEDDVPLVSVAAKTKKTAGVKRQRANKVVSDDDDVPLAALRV

[15] = system: Leishmania donovani; assay: Antileishmanial activity against Leishmania donovani Ag83 amastigotes infected in BALB/c mouse macrophage assessed as cell viability incubated for 48 hrs by PI staining based analysis; format: functional, organism-based; conditions: Ag83, 48 h
[16] = system: Leishmania amazonensis; assay: Antileishmanial activity against Leishmania amazonensis promastigotes assessed as parasite growth inhibition incubated for 24 hrs; format: functional, organism-based
[17] = system: Leishmania infantum; assay: Antileishmanial activity against Leishmania infantum amastigotes assessed as inhibition of parasite growth; format: functional, organism-based
[18] = Inhibition of Leishmania braziliensis DNA topoisomerase I
[19] = system: Leishmania donovani; assay: Antileishmanial activity against Leishmania donovani promastigotes assessed as reduction in parasitic growth by MTT assay; format: functional, organism-based

Molecule `CCc1ccc2c(c1)C1c3ccccc3CC1C(c1ccccn1)N2` (stereo not drawn) has an IC50 [1] of 1 µg/mL (≈ 3.06 µM).
`Cc1cc(NC(=O)c2ccc([N+](=O)[O-])s2)ccc1Br` showed an IC50 [2] of 0.19 µM.
For `CC1OC(O[C@H]2[C@H](O)[C@@H](OCCc3ccc(O)c(O)c3)OC(CO)[C@H]2OC(=O)/C=C/c2ccc(O)c(O)c2)C(O)C(O)C1O` (stereo partly drawn), the IC50 [3] was 14 µM and the Ki [4] was 26 µM.
With `O=C(CC12CC3CC(CC(C3)C1)C2)Nc1ccc([Se][Se]c2ccc(NC(=O)C34CC5CC(CC(C5)C3)C4)cc2)cc1` the EC50 [5] was 1.19 µM.
In the case of `O=C(/C=C/c1ccc(F)cc1)c1ccccc1Cl`, the inhibition [6] is reported as 72.3% and the inhibition [7] is reported as 74.1%.
Work on `O=C(c1ccc(Br)cc1)c1cc(O)cc(-c2ccc(Br)cc2)c1` yielded an IC50 [8] of 6.01 µM and an IC50 [9] of 11.5 µM.
Molecule `COc1ccc(C(=O)/C=C/c2ccc([N+](=O)[O-])cc2)cc1` has an inhibition [6] of 69.5% and an inhibition [7] of 70.4%.
`O=C(/C=C/c1ccc(O)c(O)c1)O[C@@H](Cc1ccc(O)c(O)c1)C(=O)O` showed an IC50 [3] of 28 µM and a Ki [4] of 1.3 µM.
`COc1cccc2c1C(=O)c1c(O)c3c(c(O)c1C2=O)C[C@@](O)(C(=O)CO)C[C@@H]3O[C@H]1C[C@H](N)[C@H](O)[C@H](C)O1` [DOXORUBICIN] gave an IC50 [10] of 12 µM and an IC50 [11] of 11.8 µM.
`Oc1cc(O)c2c(c1)O[C@@H](c1ccc(O)c(O)c1)[C@H](O)C2` [(-)-CATECHIN] showed an IC50 [12] of 0.77 µM.
Molecule `COc1c(O)ccc2c1c[n+](C)c1c3cc4c(cc3ccc21)OCO4` has an IC50 [13] of 0.54 µM.
For `C[C@@H]1[C@H](O)[C@@H](C)/C=C/C=C/C=C/C=C/C=C/C=C/C=C/[C@H](O[C@@H]2O[C@H](C)[C@@H](O)[C@H](N)[C@@H]2O)C[C@@H]2O[C@](O)(C[C@@H](O)C[C@@H](O)[C@H](O)CC[C@@H](O)C[C@@H](O)CC(=O)O[C@H]1C)C[C@H](O)[C@H]2C(=O)O` [AMPHOTERICIN B], the IC50 [1] was 0.036 µg/mL (≈ 0.039 µM).
Molecule `COc1cc2c3c(c1)Oc1c(OC)c(OC)c(OC)c4c1C(Cc1ccc(cc1)Oc1cc(ccc1OC)C[C@H]3N(C)CC2)N(C)CC4` (stereo partly drawn) has an IC50 [14] of 50 µM.
`CO[C@@]12[C@H](COC(N)=O)C3=C(C(=O)C(C)=C(N)C3=O)N1C[C@@H]1N[C@@H]12` [MITOMYCIN] gave an IC50 [10] of 11.5 µM and an IC50 [11] of 12.8 µM.
Molecule `Cc1cc2c(c(=O)[nH]1)C(=O)O/C2=C/c1ccccc1` has an EC50 [15] of 1 µM.
`CCN(CC)CCOC(=O)c1ccc(NCCC(=O)c2ccc([N+](=O)[O-])cc2)cc1` gave an IC50 [16] of 12.4 µM.
Molecule `O=c1c(O)c(-c2ccc(O)c(O)c2)oc2cc(O)ccc12` [FISETIN] has an IC50 [3] of 1.4 µM.
`Fc1ccc(C2Nc3cccnc3[C@H]3c4ccccc4C[C@@H]23)c(F)c1` (stereo partly drawn) gave an IC50 [17] of 0.67 µM.
With `O=c1cc(-c2ccc(O)c(O)c2)oc2cc(O)cc(O)c12` [LUTEOLIN] the IC50 [3] was 9 µM.
`COc1cccc(C2Nc3cccnc3[C@H]3c4ccccc4C[C@@H]23)c1` (stereo partly drawn) showed an IC50 [17] of 0.54 µM.
For `O=C(Cc1cccc2ccccc12)Nc1ccc([Se][Se]c2ccc(NC(=O)c3cccc4ccccc34)cc2)cc1`, the EC50 [5] was 0.5 µM.
With `CC(=O)Oc1ccc(OC(C)=O)c2cc3c(cc12)CCCC3(C)C` the IC50 [14] was > 100 µM.
In the case of `COc1ccc(C(C2=C(O)C(=O)c3ccccc3C2=O)C2=C(O)C(=O)c3ccccc3C2=O)cc1`, the IC50 [18] is reported as > 100 µM.
With `CCCCCC(C1=C(O)C(=O)c2ccccc2C1=O)C1=C(O)C(=O)c2ccccc2C1=O` the IC50 [18] was 5.2 µM.
Molecule `O=c1c(O)c(-c2ccc(O)c(O)c2)oc2cc(O)cc(O)c12` [QUERCETIN] has an IC50 [3] of 4.3 µM.
`COC(=O)c1ccc(C2OC(C)(C)C3CC(=O)C(C)C2C3)cc1` (stereo not drawn) gave an IC50 [19] of 4.9 µM.
